ChEMBL document CHEMBL5108002, “Design, synthesis, and biological evaluation of novel 7-substituted 10,11-methylenedioxy-camptothecin derivatives against drug-resistant small-cell lung cancer in vitro and in vivo” (Eur J Med Chem, 2022)
Calls of active or inactive are those of the source. No cut-off for these calls is given here.

Legend:
[1] = system: 2008; assay: Antiproliferative activity against human 2008 cells assessed as inhibition of cell growth incubated for 72 hrs by SRB assay; assay type: functional, cell-based; settings: Homo sapiens, 2008, 72 h
[2] = system: SW-620; assay: Antiproliferative activity against human SW-620 cells assessed as inhibition of cell growth incubated for 72 hrs by SRB assay; assay type: functional, cell-based; settings: SW-620, 72 h
[3] = system: NCI-H446; assay: Antiproliferative activity against Irinotecan-resistant human NCI-H446 cells assessed as inhibition of cell growth incubated for 72 hrs by SRB assay; assay type: functional, cell-based; settings: NCI-H446, 72 h
[4] = Resistance index, ratio of IC50 for antiproliferative activity against Irinotecan-resistant human NCI-H446 cells to IC50 for antiproliferative activity against human NCI-H446 cells; assay type: functional
[5] = Resistance index, ratio of IC50 for antiproliferative activity against etoposide/cisplatin combination-resistant human NCI-H446 cells to IC50 for antiproliferative activity against human NCI-H446 cells; assay type: functional
[6] = system: HepG2; assay: Antiproliferative activity against human HepG2 cells assessed as inhibition of cell growth incubated for 72 hrs by SRB assay; assay type: functional, cell-based; settings: HepG2, 72 h
[7] = system: Bel-7402; assay: Antiproliferative activity against human Bel-7402 cells assessed as inhibition of cell growth incubated for 72 hrs by SRB assay; assay type: functional, cell-based; settings: Bel-7402, 72 h
[8] = system: H69AR; assay: Antiproliferative activity against human NCI-H69AR cells assessed as inhibition of cell growth incubated for 72 hrs by SRB assay; assay type: functional, cell-based
[9] = system: SH-SY5Y; assay: Antiproliferative activity against human SH-SY5Y cells assessed as inhibition of cell growth incubated for 72 hrs by SRB assay; assay type: functional, cell-based
[10] = system: MCF7; assay: Antiproliferative activity against human MCF7 cells assessed as inhibition of cell growth incubated for 72 hrs by SRB assay; assay type: functional, cell-based; settings: MCF7, 72 h
[11] = system: NCI-H69; assay: Antiproliferative activity against human NCI-H69 cells assessed as inhibition of cell growth incubated for 72 hrs by SRB assay; assay type: functional, cell-based; settings: NCI-H69, 72 h
[12] = system: U-87 MG; assay: Antiproliferative activity against human U87 cells assessed as inhibition of cell growth incubated for 72 hrs by SRB assay; assay type: functional, cell-based, U-87MG ATCC
[13] = system: NCI-H446; assay: Induction of apoptosis in human NCI-H446 cells assessed as early apoptotic cells at 0.1 nM incubated for 24 hrs by AnnexinV-FITC/PI staining based flow cytometry analysis (reference value: 2.43 %); assay type: functional
[14] = system: NCI-H446; assay: Induction of apoptosis in human NCI-H446 cells assessed as late apoptotic cells at 0.1 nM incubated for 24 hrs by AnnexinV-FITC/PI staining based flow cytometry analysis (reference value: 1.55 %); assay type: functional
[15] = system: NCI-H446; assay: Induction of apoptosis in human NCI-H446 cells assessed as dead cells at 0.1 nM incubated for 24 hrs by AnnexinV-FITC/PI staining based flow cytometry analysis (reference value: 0.33 %); assay type: functional
[16] = system: NCI-H446; assay: Induction of apoptosis in human NCI-H446 cells assessed as early apoptotic cells at 1 nM incubated for 24 hrs by AnnexinV-FITC/PI staining based flow cytometry analysis (reference value: 2.43 %); assay type: functional
[17] = system: NCI-H446; assay: Induction of apoptosis in human NCI-H446 cells assessed as late apoptotic cells at 1 nM incubated for 24 hrs by AnnexinV-FITC/PI staining based flow cytometry analysis (reference value: 1.55 %); assay type: functional
[18] = system: NCI-H446; assay: Induction of apoptosis in human NCI-H446 cells assessed as dead cells at 1 nM incubated for 24 hrs by AnnexinV-FITC/PI staining based flow cytometry analysis (reference value: 0.33 %); assay type: functional
[19] = system: NCI-H446; assay: Induction of apoptosis in human NCI-H446 cells assessed as early apoptotic cells at 10 nM incubated for 24 hrs by AnnexinV-FITC/PI staining based flow cytometry analysis (reference value: 2.43 %); assay type: functional
[20] = system: NCI-H446; assay: Induction of apoptosis in human NCI-H446 cells assessed as late apoptotic cells at 10 nM incubated for 24 hrs by AnnexinV-FITC/PI staining based flow cytometry analysis (reference value: 1.55 %); assay type: functional
[21] = system: NCI-H446; assay: Induction of apoptosis in human NCI-H446 cells assessed as dead cells at 10 nM incubated for 24 hrs by AnnexinV-FITC/PI staining based flow cytometry analysis (reference value: 0.33 %); assay type: functional
[22] = system: H69AR; assay: Induction of apoptosis in human NCI-H69AR cells assessed as early apoptotic cells at 1 nM incubated for 24 hrs by AnnexinV-FITC/PI staining based flow cytometry analysis (reference value: 0.35 %); assay type: functional
[23] = system: H69AR; assay: Induction of apoptosis in human NCI-H69AR cells assessed as late apoptotic cells at 1 nM incubated for 24 hrs by AnnexinV-FITC/PI staining based flow cytometry analysis (reference value: 2.99 %); assay type: functional
[24] = system: H69AR; assay: Induction of apoptosis in human NCI-H69AR cells assessed as dead cells at 1 nM incubated for 24 hrs by AnnexinV-FITC/PI staining based flow cytometry analysis (reference value: 1.92 %); assay type: functional
[25] = system: H69AR; assay: Induction of apoptosis in human NCI-H69AR cells assessed as early apoptotic cells at 10 nM incubated for 24 hrs by AnnexinV-FITC/PI staining based flow cytometry analysis (reference value: 0.35 %); assay type: functional
[26] = system: H69AR; assay: Induction of apoptosis in human NCI-H69AR cells assessed as late apoptotic cells at 10 nM incubated for 24 hrs by AnnexinV-FITC/PI staining based flow cytometry analysis (reference value: 2.99 %); assay type: functional
[27] = system: H69AR; assay: Induction of apoptosis in human NCI-H69AR cells assessed as dead cells at 10 nM incubated for 24 hrs by AnnexinV-FITC/PI staining based flow cytometry analysis (reference value: 1.92 %); assay type: functional
[28] = system: H69AR; assay: Induction of apoptosis in human NCI-H69AR cells assessed as early apoptotic cells at 100 nM incubated for 24 hrs by AnnexinV-FITC/PI staining based flow cytometry analysis (reference value: 0.35 %); assay type: functional
[29] = system: H69AR; assay: Induction of apoptosis in human NCI-H69AR cells assessed as late apoptotic cells at 100 nM incubated for 24 hrs by AnnexinV-FITC/PI staining based flow cytometry analysis (reference value: 2.99 %); assay type: functional
[30] = system: H69AR; assay: Induction of apoptosis in human NCI-H69AR cells assessed as dead cells at 100 nM incubated for 24 hrs by AnnexinV-FITC/PI staining based flow cytometry analysis (reference value: 1.92 %); assay type: functional
[31] = system: NCI-H446; assay: Induction of apoptosis in human NCI-H446 cells assessed as increase in cleaved-PARP protein expression at 0.1 to 100 nM measured after 24 hrs by Western blot analysis; assay type: functional, cell-based; settings: dose 0.1-100 nM
[32] = system: NCI-H446; assay: Induction of apoptosis in human NCI-H446 cells assessed as increase in cleaved-caspase 9 protein expression at 0.1 to 100 nM measured after 24 hrs by Western blot analysis; assay type: functional, cell-based; settings: dose 0.1-100 nM
[33] = system: NCI-H446; assay: Induction of apoptosis in human NCI-H446 cells assessed as increase in cleaved-caspase 3 protein expression at 0.1 to 100 nM measured after 24 hrs by Western blot analysis; assay type: functional, cell-based; settings: dose 0.1-100 nM
[34] = system: NCI-H446; assay: Antitumor activity against human NCI-H446 cells xenografted in BALB/c nude mouse assessed as tumor growth inhibition at 3 mg/kg, IG administered once a week for 28 days by electronic caliper method relative to control; assay type: functional; settings: NCI-H446, po, 672 h, time 28 day, read-out: TGI
[35] = system: NCI-H446; assay: Antiproliferative activity against etoposide/cisplatin combination-resistant human NCI-H446 cells assessed as inhibition of cell growth incubated for 72 hrs by SRB assay; assay type: functional, cell-based; settings: NCI-H446, 72 h
[36] = system: NCI-H446; assay: Antitumor activity against Irinotecan-resistant human NCI-H446 cells xenografted in BALB/c nude mouse assessed as tumor weight at 100 mg/kg, IG administered once a week and measured 3 times a week for 35 days; assay type: functional; settings: time 35 day

## CC[C@@]1(O)C(=O)OCc2c1cc1n(c2=O)Cc2c-1nc1cc3c(cc1c2-c1ccsc1)OCO3
[1]
  IC50: 39.2 nM
[2]
  IC50: 0.36 nM

## COc1cc([C@@H]2c3cc4c(cc3[C@@H](O[C@@H]3O[C@@H]5CO[C@@H](C)O[C@H]5[C@H](O)[C@H]3O)[C@H]3COC(=O)[C@H]23)OCO4)cc(OC)c1O [ETOPOSIDE]
[3]
  IC50: 192 nM
[4]
  Ratio IC50: 11.48
[5]
  Ratio IC50: 19.28

## CC[C@@]1(O)C(=O)OCc2c1cc1n(c2=O)Cc2cc3c(CN(C)C)c(O)ccc3nc2-1 [TOPOTECAN]
[1]
  IC50: > 500 nM
[2]
  IC50: > 500 nM

## COc1cccc2c1C(=O)c1c(O)c3c(c(O)c1C2=O)C[C@@](O)(C(=O)CO)C[C@@H]3O[C@H]1C[C@H](N)[C@H](O)[C@H](C)O1 [DOXORUBICIN]
[3]
  IC50: 5.71 nM
[4]
  Ratio IC50: 14.64
[5]
  Ratio IC50: 46.56

## CC[C@@]1(O)C(=O)OCc2c1cc1n(c2=O)Cc2c-1nc1cc3c(cc1c2-c1cnn(C)c1)OCO3
[1]
  IC50: 22.4 nM
[2]
  IC50: 0.84 nM

## CC[C@@]1(O)C(=O)OCc2c1cc1n(c2=O)Cc2cc3cc4c(cc3nc2-1)OCO4
[1]
  IC50: 37.3 nM
[2]
  IC50: 0.93 nM
[6]
  IC50: 10.6 nM
[7]
  IC50: 21.8 nM
[8]
  IC50: 6.29 nM
[9]
  IC50: 24.2 nM
[10]
  IC50: 63.3 nM
[11]
  IC50: 15.8 nM
[12]
  IC50: 109 nM
[13]
  Activity: 3.93%
[14]
  Activity: 0.83%
[15]
  Activity: 0.34%
[16]
  Activity: 9.64%
[17]
  Activity: 1.83%
[18]
  Activity: 0.97%
[19]
  Activity: 14.27%
[20]
  Activity: 2.82%
[21]
  Activity: 0.37%
[22]
  Activity: 0.58%
[23]
  Activity: 5.73%
[24]
  Activity: 1.72%
[25]
  Activity: 0.43%
[26]
  Activity: 7.33%
[27]
  Activity: 2.87%
[28]
  Activity: 1.3%
[29]
  Activity: 32.78%
[30]
  Activity: 1.56%
[31]
  Activity: Active
[32]
  Activity: Active
[33]
  Activity: Active
[34]
  inhibition in vivo at 3 mg/kg: 27.7%
[3]
  IC50: 18.5 nM
[4]
  Ratio IC50: 2.09
[35]
  IC50: 6.61 nM
[5]
  Ratio IC50: 0.78

## CC[C@@]1(O)C(=O)OCc2c1cc1n(c2=O)Cc2c-1nc1cc3c(cc1c2-c1cccs1)OCO3
[1]
  IC50: 4.03 nM
[2]
  IC50: 0.29 nM

## CC[C@@]1(O)C(=O)OCc2c1cc1n(c2=O)Cc2c-1nc1cc3c(cc1c2-c1ccc(CO)cc1)OCO3
[1]
  IC50: 7.67 nM
[2]
  IC50: 0.28 nM

## CC[C@@]1(O)C(=O)OCc2c1cc1n(c2=O)Cc2c-1nc1cc3c(cc1c2-c1ccco1)OCO3
[1]
  IC50: 0.16 nM
[2]
  IC50: 102 nM

## CCc1c2c(nc3ccc(OC(=O)N4CCC(N5CCCCC5)CC4)cc13)-c1cc3c(c(=O)n1C2)COC(=O)[C@]3(O)CC [IRINOTECAN]
[34]
  inhibition in vivo at 3 mg/kg: 26.8%
[3]
  IC50: 0.15 nM
[4]
  Ratio IC50: 15
[35]
  IC50: 0.13 nM
[5]
  Ratio IC50: 13
[36]
  Activity: 2.28 g

## CC[C@@]1(O)C(=O)OCc2c1cc1n(c2=O)Cc2c-1nc1cc3c(cc1c2-c1cc(C(F)(F)F)cc(C(F)(F)F)c1)OCO3
[1]
  IC50: 49.7 nM
[2]
  IC50: 1.44 nM

## CC[C@@]1(O)C(=O)OCc2c1cc1n(c2=O)Cc2c-1nc1cc3c(cc1c2-c1cccnc1)OCO3
[1]
  IC50: 11.6 nM
[2]
  IC50: 0.17 nM

## CC[C@@]1(O)C(=O)OCc2c1cc1n(c2=O)Cc2c-1nc1cc3c(cc1c2-c1ccncc1)OCO3
[1]
  IC50: 93.5 nM
[2]
  IC50: 2.67 nM
